Experimental data reported in patent US11572402B2, “Method for promoting diversification of antibody variable region” (Chiome Bioscience Inc., priority 2017, dated 2023).

Tested on: hVEGF-A-#33 cell line
Experiment: Screening for diversification-promoting compounds by FCM (hIgG+_hVEGF-A− population)
Format: cell-based, chicken
Conditions: hVEGF-A-#33 cells expressing human IgG, versus negative control CS(−)
Experimental: Frozen stocks of the hVEGF-A #33 cell line and the hVEGF-A #44 cell line (3.0×10^6 cells) were each awaken with a CS(-) medium, using a 25 cm^2 Flask (Corning, 430639), and were then cultured in a CO2 incubator (SANYO CO2 Incubator MCO-20AIC, 39.5° C., 5% CO2). On the following day, the cells were seeded on a 6-well dish (Nunc, 140675) to a cell density of 1.0×10^4 cells/mL (wherein the cell concentration and the survival rate were measured using CASY cell counter (Nepa Gene)). The cells were cultured in a CS(+) medium, in the presence or absence of a PI3Kα inhibitor ([…]: 10 μM, PI3Kα Inhibitor 2: 500 nM). Moreover, after the cells had been cultured for 2 days, individual samples were subcultured under the same conditions to result in a cell density of 1.0×10^4 cells/mL. Further, after completion of the culture for 3 days, individual samples were subcultured under the same conditions to result in a cell density of 6.0×10^4 cells/mL, and the culture was continued. After completion of the culture for 2 days (Day 7 of the culture), individual samples were centrifuged to remove a supernatant, and the residue was then suspended in a CS(+) medium supplemented with 1 μM FK-506 (hereinafter referred to as a “CS/FK medium”). The suspension was centrifuged again to remove a supernatant. This washing step was carried out repeatedly twice, and individual samples were then suspended in a CS/FK medium supplemented with AF647-labeled hVEGF-A (10 nM) and 2,000-fold diluted Goat Anti-Human IgG-PE. The light was shielded, and the obtained suspension was then reacted at 4° C. for 30 min. After completion of the staining, the reaction mixture was washed with a CS/FK medium twice, and each sample was then suspended in the CS/FK medium. Thereafter, using FACS Aria Fusion (BD), FCM and single cell sorting was carried out. Dead cells were removed using FSC-SSC plot. A plot, in which the vertical axis indicated AF647 (AF647-labeled hVEGF-A) and the longitudinal axis indicated PE (Goat Anti-Human IgG-PE), was developed, and the percentage of PE+(hIgG+)/AF647-(hVEGF-A-) cells was then calculated. In order to make a comparison regarding the number of cells with improved antigen-binding ability according to Affinity Maturation under individual conditions, Affinity Maturation Gate was established according to the following criteria. First, the plot was converted to a contour plot in FCM analysis, and a trapezoid gate having an inclination that was in parallel with the contour of a population in which the most cells were gathered (hereinafter referred to as a “main population”) was established. […] At that time, the vertex of the trapezoid gate was set to be overlapped with the mean value MFI of the main population, and then, a cell population having low antigen-binding ability and a cell population having a low expression level of antibody were set not to enter the gate. The percentage of clones with improved antigen-binding ability was calculated by counting the number of cells existing in this Affinity Maturation Gate and then dividing the obtained value by the total number of the analyzed cells. […]

| SMILES | percentage of hIgG+_hVEGF-A− cell population (diversification-promoting effect) |
| --- | --- |
| O=C1NC(=O)/C(=C/c2ccc3nccc(-c4ccncc4)c3c2)S1 [GSK1059615] | increased in comparison to the negative control (CS(−)) |
| N#Cc1ccc(-c2c(-c3ncn[nH]3)sc(N3CCOCC3)c2C#N)c(F)c1 [PF-4989216] | increased in comparison to the negative control (CS(−)) |
| Oc1cccc(-c2nc(N3CCOCC3)c3oc4ncccc4c3n2)c1 [PI-103] | increased in comparison to the negative control (CS(−)) |
| COc1ccc2c(c1OC)N=C(NC(=O)c1cccnc1)N1CCN=C21 [PIK-90] | increased in comparison to the negative control (CS(−)) |
